# Assay results as given in PubChem BioAssay (NCI).
#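 Dose response: 5 concentrations. Exposure: 48 h. Format: 96-well plates. Endpoint: linear interpolation; highest concentration if not reached. The concentration for 50% growth inhibition is given as GI50. Definition used: TGI = concentration required for complete inhibition of growth.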
# Tests used:
# Experiment in all cases: NCI-60 cell line screen, 48 h
# 786-0 renal = tested on: 786-0 renal
# A498 renal = tested on: A498 renal
# A549 NSCLC = tested on: A549 NSCLC
# ACHN renal = tested on: ACHN renal
# BT-549 breast = tested on: BT-549 breast
# CAKI-1 renal = tested on: CAKI-1 renal
# CCRF-CEM leukemia = tested on: CCRF-CEM leukemia
# COLO 205 colon = tested on: COLO 205 colon
# DU-145 prostate = tested on: DU-145 prostate
# EKVX NSCLC = tested on: EKVX NSCLC
# HCC-2998 colon = tested on: HCC-2998 colon
# HCT-116 colon = tested on: HCT-116 colon
# HCT-15 colon = tested on: HCT-15 colon
# HL-60(TB) leukemia = tested on: HL-60(TB) leukemia
# HOP-62 NSCLC = tested on: HOP-62 NSCLC
# HOP-92 NSCLC = tested on: HOP-92 NSCLC
# HS 578T breast = tested on: HS 578T breast
# HT29 colon = tested on: HT29 colon
# IGROV1 ovarian = tested on: IGROV1 ovarian
# K-562 leukemia = tested on: K-562 leukemia
# KM12 colon = tested on: KM12 colon
# LOX IMVI melanoma = tested on: LOX IMVI melanoma
# M14 melanoma = tested on: M14 melanoma
# MALME-3M melanoma = tested on: MALME-3M melanoma
# MCF7 breast = tested on: MCF7 breast
# MDA-MB-231 breast = tested on: MDA-MB-231 breast
# MDA-MB-435 = tested on: MDA-MB-435
# MOLT-4 leukemia = tested on: MOLT-4 leukemia
# NCI-H226 lung = tested on: NCI-H226 lung
# NCI-H23 lung = tested on: NCI-H23 lung
# NCI-H460 lung = tested on: NCI-H460 lung
# NCI-H522 lung = tested on: NCI-H522 lung
# NCI/ADR-RES ovarian = tested on: NCI/ADR-RES ovarian
# OVCAR-3 ovarian = tested on: OVCAR-3 ovarian
# OVCAR-4 ovarian = tested on: OVCAR-4 ovarian
# OVCAR-5 ovarian = tested on: OVCAR-5 ovarian
# OVCAR-8 ovarian = tested on: OVCAR-8 ovarian
# PC-3 prostate = tested on: PC-3 prostate
# RPMI-8226 leukemia = tested on: RPMI-8226 leukemia
# RXF 393 renal = tested on: RXF 393 renal
# SF-268 CNS = tested on: SF-268 CNS
# SF-295 CNS = tested on: SF-295 CNS
# SF-539 CNS = tested on: SF-539 CNS
# SK-MEL-2 melanoma = tested on: SK-MEL-2 melanoma
# SK-MEL-28 melanoma = tested on: SK-MEL-28 melanoma
# SK-MEL-5 melanoma = tested on: SK-MEL-5 melanoma
# SN12C renal = tested on: SN12C renal
# SNB-19 CNS = tested on: SNB-19 CNS
# SNB-75 CNS = tested on: SNB-75 CNS
# SR leukemia = tested on: SR leukemia
# SW-620 colon = tested on: SW-620 colon
# T-47D breast = tested on: T-47D breast
# TK-10 renal = tested on: TK-10 renal
# U251 CNS = tested on: U251 CNS
# UACC-257 melanoma = tested on: UACC-257 melanoma
# UACC-62 melanoma = tested on: UACC-62 melanoma
# UO-31 renal = tested on: UO-31 renal
smiles,measurement,setting,value
O=C(Nc1ccc(Cl)cc1F)c1ccccc1O,GI50,786-0 renal,3.44 µM
same,TGI,786-0 renal,> 100 µM
same,GI50,A498 renal,2.22 µM
same,TGI,A498 renal,6.29 µM
same,GI50,A549 NSCLC,3.6 µM
same,TGI,A549 NSCLC,> 100 µM
same,GI50,ACHN renal,2.36 µM
same,TGI,ACHN renal,7.54 µM
same,GI50,BT-549 breast,2.88 µM
same,TGI,BT-549 breast,9.88 µM
same,GI50,CAKI-1 renal,2.37 µM
same,TGI,CAKI-1 renal,13.6 µM
same,GI50,CCRF-CEM leukemia,3.47 µM
same,TGI,CCRF-CEM leukemia,> 100 µM
same,GI50,COLO 205 colon,5.7 µM
same,TGI,COLO 205 colon,41.2 µM
same,GI50,DU-145 prostate,4.13 µM
same,TGI,DU-145 prostate,> 100 µM
same,GI50,EKVX NSCLC,1.96 µM
same,TGI,EKVX NSCLC,12.5 µM
same,GI50,HCC-2998 colon,3.07 µM
same,TGI,HCC-2998 colon,13.1 µM
same,GI50,HCT-116 colon,3.15 µM
same,TGI,HCT-116 colon,11.3 µM
same,GI50,HCT-15 colon,1.92 µM
same,TGI,HCT-15 colon,14.2 µM
same,GI50,HL-60(TB) leukemia,2.53 µM
same,TGI,HL-60(TB) leukemia,6.16 µM
same,GI50,HOP-62 NSCLC,2.74 µM
same,TGI,HOP-62 NSCLC,21.7 µM
same,GI50,HOP-92 NSCLC,1.42 µM
same,TGI,HOP-92 NSCLC,4.59 µM
same,GI50,HS 578T breast,2.68 µM
same,TGI,HS 578T breast,23.2 µM
same,GI50,HT29 colon,5.32 µM
same,TGI,HT29 colon,92.9 µM
same,GI50,IGROV1 ovarian,1.43 µM
same,TGI,IGROV1 ovarian,64.3 µM
same,GI50,K-562 leukemia,3.5 µM
same,TGI,K-562 leukemia,> 100 µM
same,GI50,KM12 colon,2.97 µM
same,TGI,KM12 colon,20.3 µM
same,GI50,LOX IMVI melanoma,2.95 µM
same,TGI,LOX IMVI melanoma,10.4 µM
same,GI50,M14 melanoma,3.45 µM
same,TGI,M14 melanoma,16.7 µM
same,GI50,MALME-3M melanoma,2.26 µM
same,TGI,MALME-3M melanoma,8.8 µM
same,GI50,MCF7 breast,1.5 µM
same,TGI,MCF7 breast,12.6 µM
same,GI50,MDA-MB-231 breast,1.44 µM
same,TGI,MDA-MB-231 breast,3.79 µM
same,GI50,MDA-MB-435,3.37 µM
same,TGI,MDA-MB-435,30.7 µM
same,GI50,MOLT-4 leukemia,3.49 µM
same,TGI,MOLT-4 leukemia,13.5 µM
same,GI50,NCI-H226 lung,2.23 µM
same,TGI,NCI-H226 lung,8.85 µM
same,GI50,NCI-H23 lung,2.12 µM
same,TGI,NCI-H23 lung,6.13 µM
same,GI50,NCI-H460 lung,3.21 µM
same,TGI,NCI-H460 lung,19.7 µM
same,GI50,NCI-H522 lung,2.45 µM
same,TGI,NCI-H522 lung,30 µM
same,GI50,NCI/ADR-RES ovarian,2.44 µM
same,TGI,NCI/ADR-RES ovarian,7.61 µM
same,GI50,OVCAR-3 ovarian,2.98 µM
same,TGI,OVCAR-3 ovarian,> 100 µM
same,GI50,OVCAR-4 ovarian,2.75 µM
same,TGI,OVCAR-4 ovarian,> 100 µM
same,GI50,OVCAR-5 ovarian,3.04 µM
same,TGI,OVCAR-5 ovarian,> 100 µM
same,GI50,OVCAR-8 ovarian,3.61 µM
same,TGI,OVCAR-8 ovarian,> 100 µM
same,GI50,PC-3 prostate,2.77 µM
same,TGI,PC-3 prostate,10.9 µM
same,GI50,RPMI-8226 leukemia,1.97 µM
same,TGI,RPMI-8226 leukemia,7.32 µM
same,GI50,RXF 393 renal,3.23 µM
same,TGI,RXF 393 renal,11.2 µM
same,GI50,SF-268 CNS,3.63 µM
same,TGI,SF-268 CNS,> 100 µM
same,GI50,SF-295 CNS,2.35 µM
same,TGI,SF-295 CNS,5.87 µM
same,GI50,SF-539 CNS,2.94 µM
same,TGI,SF-539 CNS,18.5 µM
same,GI50,SK-MEL-2 melanoma,2.3 µM
same,TGI,SK-MEL-2 melanoma,6.59 µM
same,GI50,SK-MEL-28 melanoma,3.9 µM
same,TGI,SK-MEL-28 melanoma,21.6 µM
same,GI50,SK-MEL-5 melanoma,1.69 µM
same,TGI,SK-MEL-5 melanoma,3.48 µM
same,GI50,SN12C renal,2.24 µM
same,TGI,SN12C renal,8.71 µM
same,GI50,SNB-19 CNS,3.23 µM
same,TGI,SNB-19 CNS,> 100 µM
same,GI50,SNB-75 CNS,3.26 µM
same,TGI,SNB-75 CNS,> 100 µM
same,GI50,SR leukemia,5.73 µM
same,TGI,SR leukemia,> 100 µM
same,GI50,SW-620 colon,3.26 µM
same,TGI,SW-620 colon,> 100 µM
same,GI50,T-47D breast,2.49 µM
same,TGI,T-47D breast,> 100 µM
same,GI50,TK-10 renal,4.54 µM
same,TGI,TK-10 renal,47.1 µM
same,GI50,U251 CNS,3.42 µM
same,TGI,U251 CNS,> 100 µM
same,GI50,UACC-257 melanoma,2.9 µM
same,TGI,UACC-257 melanoma,8.86 µM
same,GI50,UACC-62 melanoma,2.08 µM
same,TGI,UACC-62 melanoma,9.24 µM
same,GI50,UO-31 renal,1.25 µM
same,TGI,UO-31 renal,6.65 µM
